We go through 2 compounds from patent US5658916A, “Drug active on the central nervous system, a process for the preparation thereof and pharmaceutical compositions containing it” (Vita-Invest, S.A., priority 1994, dated 1997).

In one experiment the target is T1, D2 receptors (Rattus norvegicus, UniProt P61169).
T1 construct: Striate tissue of rat brain was prepared; from tissue; host or cells: rat brain striatum, crude membrane homogenate
Nature of the experiment: Displacement of 3H-spiroperidol binding to D2 receptors (striate tissue of rat brain). On the procedure:
Studies on binding to D2 receptors.
These were carried out as described by Leysen et al (1978), with certain modifications. Striate tissue of rat brain was prepared, with homogenization in 20 volumes of Tris-HCl buffer in ice (50 mM, pH=7.7, 4° C.), The homogenate was centrifuged (40,000 g, 10 min) and the pellet was suspended in 10 volumes of cold buffer and recentrifuged. The final pellet was suspended in 10 volumes of 50 mM Tris-HCl buffer, with 120 mM of NaCl and 5 mM of […] (pH=7.7). The displacement studies were carried out with 25 μl of ^3 H-spiroperidol (0.2 nM, NEN), 25 μl of cold displacer and 200 μl of tissue. The incubation (37° C., 15 min) was terminated by rapid filtering through Whatman GF/C filters.
On the technique in general: In a radioligand displacement assay an active substance lowers the binding of a labelled ligand.

For a further experiment, the target named is α1-adrenergic receptors. As to the kind of experiment: Displacement of 3H-prazosin binding to α1-adrenergic receptors (rat brain cortex). As to conditions: read-out: Displacement (Ki, nM) of the binding of 3H-prazosin to α1-adrenergic receptors, 3H-prazosin 0.5 nM, 37° C., 15 min, pH 7.7. On the procedure:
Binding to at adrenergen receptors
These were carried out as described by Morrow et al . […] Rat brain cortical tissue was obtained, with homogenization in 20 volumes of Tris-HCl buffer in ice (50 mM, pH=7.7, 4° C.). The homogenate was centrifuged (25,000 rpm/12 min at 4° C.) and the pellet was rehomogenized, being finally resuspended in 50 mM Tris-HCl buffer, pH=7.7 (dilution 1:200). […] The incubation (37° C., 15 min) was terminated by rapid filtering through Whatman GF/C filters, followed by washing twice with […] of Tris-HCl buffer, 50 mM.

For another experiment, the target named is T2, 5HT2 receptors (Rattus norvegicus, UniProt P14842).
T2 construct: Front cortex of rat brain was prepared; from tissue; host or cells: rat brain frontal cortex, crude membrane homogenate
As to the kind of experiment: Displacement of 3H-ketanserine binding to 5HT2 receptors (front cortex of rat brain). The note with it: 3H-ketanserine 0.5 nM, 37° C., 15 min. On the procedure:
These were carried out as described by Leysen et al (1978), with certain modifications. […] The incubation (37° C., 15 min) was terminated by rapid filtering through Whatman GF/C filters.

Read-outs that look alike come from different tables or passages of the source.

T1 sequence (P61169 whole entry): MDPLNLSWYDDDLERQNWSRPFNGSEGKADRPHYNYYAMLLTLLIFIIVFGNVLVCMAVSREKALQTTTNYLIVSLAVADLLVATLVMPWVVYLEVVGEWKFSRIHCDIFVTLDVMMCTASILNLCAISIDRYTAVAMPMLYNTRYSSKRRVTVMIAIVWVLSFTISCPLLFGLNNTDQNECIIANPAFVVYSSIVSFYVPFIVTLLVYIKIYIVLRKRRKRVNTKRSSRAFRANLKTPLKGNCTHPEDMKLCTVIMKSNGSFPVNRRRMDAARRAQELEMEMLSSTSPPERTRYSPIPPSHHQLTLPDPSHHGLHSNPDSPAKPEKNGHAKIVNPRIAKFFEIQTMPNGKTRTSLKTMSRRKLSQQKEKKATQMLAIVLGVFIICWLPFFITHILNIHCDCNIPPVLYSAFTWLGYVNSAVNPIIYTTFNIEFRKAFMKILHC
T2 sequence (P14842 whole entry): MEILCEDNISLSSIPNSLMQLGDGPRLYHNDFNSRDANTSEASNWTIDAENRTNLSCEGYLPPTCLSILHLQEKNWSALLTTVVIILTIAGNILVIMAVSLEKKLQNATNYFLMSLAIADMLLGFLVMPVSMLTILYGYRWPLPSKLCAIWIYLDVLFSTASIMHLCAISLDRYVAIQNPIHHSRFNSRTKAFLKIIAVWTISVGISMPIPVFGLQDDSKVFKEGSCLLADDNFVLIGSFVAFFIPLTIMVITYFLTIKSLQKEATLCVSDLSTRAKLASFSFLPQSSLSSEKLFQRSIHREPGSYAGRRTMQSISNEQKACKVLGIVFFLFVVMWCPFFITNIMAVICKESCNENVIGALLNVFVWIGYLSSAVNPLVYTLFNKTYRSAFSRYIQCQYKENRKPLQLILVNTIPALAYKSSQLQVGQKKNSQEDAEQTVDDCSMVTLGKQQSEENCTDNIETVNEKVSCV

Consider `Cc1nc2n(c(=O)c1CCN1CC=C(c3noc4cc(F)ccc34)CC1)CCCC2` [Compound I, 3-{2-[4-(6-fluoro-benzo[d]isoxazol-3-yl)-3,6-dihydro-2H-pyridin-1-yl]-ethyl}-2-methyl-6,7,8,9-tetrahydropyrido[1,2-a]-pyrimidin-4-one], for which the figures for the Ki at D2 receptors, on α1-adrenergic receptors and on 5HT2 receptors were 22 nM, 14.6 nM and 1.7 nM, respectively.
On to `Cc1nc2sccn2c(=O)c1CCN1CCC(=C(c2ccc(F)cc2)c2ccc(F)cc2)CC1` [Ritanserine, reference compound], for which the Ki on D2 receptors (striate rat tissue, 3H-spiroperidol 0.2 nM, 37° C., 15 min, pH 7.7) amounted to 47.7 nM; on α1-adrenergic receptors, 29.6 nM.

What is called Ki is a dissociation constant, usually derived from enzyme kinetics or from competition with a known ligand.
